Where two headings read alike, the source gives them in different places.
Legend:
[1] = Pharmacokinetic test of compounds in rats (plasma, LC/MS/MS); assay type: in vivo, male SD rats; conditions: for Vd: read-out: Apparent volume of distribution Vd; for AUC(0-t): read-out: Area under the curve AUC0-last; for half-life: read-out: Half-life T1/2 (converted); for bioavailability: read-out: Bioavailability F %; for Cmax: read-out: Peak concentration Cmax
Protocol: Experimental purpose: male SD rats aged 7-9 weeks were selected as test animals, and the drug concentrations of the compounds in plasma at different time points after single intravenous injection (IV) and intragastric administration (PO) of the compounds were measured by an LC/MS/MS method, so that the pharmacokinetic behavior of the compounds disclosed herein in rats was studied, and the pharmacokinetic characteristic of the compounds was evaluated.
Drug preparation: the compounds were all prepared into clear solution by taking 5% DMSO+10% solutol+85% water as vehicle, and were used for administration in IV and PO groups. The dose of each compound administered was: IV, 3 mg/kg; PO, 10 mg/kg.

TrkC = target: T1, TrkC (Homo sapiens, UniProt Q16288); assay: Kinase inhibitory activity (33P-ATP, filtration-binding method, Reaction Biology Corp.); assay type: biochemical
T1 construct: purchased Reaction Biology Corp
T1 sequence (Q16288 32-839): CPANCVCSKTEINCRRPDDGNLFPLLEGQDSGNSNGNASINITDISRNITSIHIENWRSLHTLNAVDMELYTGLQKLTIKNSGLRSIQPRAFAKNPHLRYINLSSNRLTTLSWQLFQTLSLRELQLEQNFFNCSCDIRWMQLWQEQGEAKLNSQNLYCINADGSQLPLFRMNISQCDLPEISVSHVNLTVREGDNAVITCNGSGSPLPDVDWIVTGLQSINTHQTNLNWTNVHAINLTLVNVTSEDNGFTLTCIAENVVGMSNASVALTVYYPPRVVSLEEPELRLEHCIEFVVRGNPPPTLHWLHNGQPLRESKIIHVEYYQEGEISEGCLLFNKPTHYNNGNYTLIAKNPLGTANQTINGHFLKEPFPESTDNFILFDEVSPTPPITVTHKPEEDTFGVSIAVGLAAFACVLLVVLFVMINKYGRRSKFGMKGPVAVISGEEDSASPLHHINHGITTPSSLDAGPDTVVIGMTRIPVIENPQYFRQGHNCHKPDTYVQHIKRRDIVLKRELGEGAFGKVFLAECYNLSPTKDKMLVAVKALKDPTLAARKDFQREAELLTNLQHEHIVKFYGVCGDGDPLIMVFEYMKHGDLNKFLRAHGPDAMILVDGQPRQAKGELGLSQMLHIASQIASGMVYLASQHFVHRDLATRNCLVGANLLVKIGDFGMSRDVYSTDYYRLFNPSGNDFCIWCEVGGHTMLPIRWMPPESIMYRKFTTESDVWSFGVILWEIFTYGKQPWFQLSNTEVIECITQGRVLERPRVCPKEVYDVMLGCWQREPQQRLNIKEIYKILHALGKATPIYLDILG
How it was run: (§1)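 Radiometric kinase assay: enzyme-compound mixture preincubated 20 minutes at room temperature, then reaction started with ^33P-ATP and run 120 minutes at room temperature. Filtration-binding readout. Activity expressed relative to DMSO control; IC50 from fitted dose-response curves.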

TrkA-G595R = target: T2, TrkA-G595R (Homo sapiens, UniProt P04629, G595R); assay: as above; assay type: biochemical
T2 construct: purchased Reaction Biology Corp
T2 sequence (P04629 33-796 G595R): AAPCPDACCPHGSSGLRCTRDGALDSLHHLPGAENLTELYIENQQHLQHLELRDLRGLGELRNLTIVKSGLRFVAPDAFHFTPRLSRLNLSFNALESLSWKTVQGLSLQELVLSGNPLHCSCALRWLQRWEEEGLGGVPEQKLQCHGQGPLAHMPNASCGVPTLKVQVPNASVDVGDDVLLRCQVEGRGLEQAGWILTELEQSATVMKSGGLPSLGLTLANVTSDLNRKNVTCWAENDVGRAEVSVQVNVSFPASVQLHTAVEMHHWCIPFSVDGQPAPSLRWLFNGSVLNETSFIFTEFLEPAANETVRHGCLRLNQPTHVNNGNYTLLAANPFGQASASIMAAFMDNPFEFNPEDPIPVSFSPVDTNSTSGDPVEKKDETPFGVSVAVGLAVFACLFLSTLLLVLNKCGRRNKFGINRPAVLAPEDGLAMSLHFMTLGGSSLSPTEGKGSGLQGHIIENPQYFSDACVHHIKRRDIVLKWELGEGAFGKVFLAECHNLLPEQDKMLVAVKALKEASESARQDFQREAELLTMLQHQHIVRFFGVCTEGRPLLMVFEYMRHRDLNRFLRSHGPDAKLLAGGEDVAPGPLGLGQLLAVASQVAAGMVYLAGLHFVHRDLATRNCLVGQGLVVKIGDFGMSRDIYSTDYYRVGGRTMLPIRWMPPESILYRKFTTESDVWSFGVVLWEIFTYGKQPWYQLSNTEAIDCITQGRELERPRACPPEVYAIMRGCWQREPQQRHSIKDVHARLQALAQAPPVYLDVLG
How it was run: as §1

TrkA = target: T3, TrkA (Homo sapiens, UniProt P04629); assay: as above; assay type: biochemical
T3 construct: purchased Reaction Biology Corp
T3 sequence (P04629 33-796): as the sequence (P04629 33-796 G595R) above, with R563G counted along it
How it was run: as §1

TrkA-G667C = target: T4, TrkA-G667C (Homo sapiens, UniProt P04629, G667C); assay: as above; assay type: biochemical
T4 construct: purchased Reaction Biology Corp
T4 sequence (P04629 33-796 G667C): as the sequence (P04629 33-796 G595R) above, with R563G, G635C counted along it
How it was run: as §1

Ros1 = target: T5, Ros1 (Homo sapiens, UniProt P08922); assay: as above; assay type: biochemical
T5 construct: purchased Reaction Biology Corp
T5 sequence (P08922 28-2347): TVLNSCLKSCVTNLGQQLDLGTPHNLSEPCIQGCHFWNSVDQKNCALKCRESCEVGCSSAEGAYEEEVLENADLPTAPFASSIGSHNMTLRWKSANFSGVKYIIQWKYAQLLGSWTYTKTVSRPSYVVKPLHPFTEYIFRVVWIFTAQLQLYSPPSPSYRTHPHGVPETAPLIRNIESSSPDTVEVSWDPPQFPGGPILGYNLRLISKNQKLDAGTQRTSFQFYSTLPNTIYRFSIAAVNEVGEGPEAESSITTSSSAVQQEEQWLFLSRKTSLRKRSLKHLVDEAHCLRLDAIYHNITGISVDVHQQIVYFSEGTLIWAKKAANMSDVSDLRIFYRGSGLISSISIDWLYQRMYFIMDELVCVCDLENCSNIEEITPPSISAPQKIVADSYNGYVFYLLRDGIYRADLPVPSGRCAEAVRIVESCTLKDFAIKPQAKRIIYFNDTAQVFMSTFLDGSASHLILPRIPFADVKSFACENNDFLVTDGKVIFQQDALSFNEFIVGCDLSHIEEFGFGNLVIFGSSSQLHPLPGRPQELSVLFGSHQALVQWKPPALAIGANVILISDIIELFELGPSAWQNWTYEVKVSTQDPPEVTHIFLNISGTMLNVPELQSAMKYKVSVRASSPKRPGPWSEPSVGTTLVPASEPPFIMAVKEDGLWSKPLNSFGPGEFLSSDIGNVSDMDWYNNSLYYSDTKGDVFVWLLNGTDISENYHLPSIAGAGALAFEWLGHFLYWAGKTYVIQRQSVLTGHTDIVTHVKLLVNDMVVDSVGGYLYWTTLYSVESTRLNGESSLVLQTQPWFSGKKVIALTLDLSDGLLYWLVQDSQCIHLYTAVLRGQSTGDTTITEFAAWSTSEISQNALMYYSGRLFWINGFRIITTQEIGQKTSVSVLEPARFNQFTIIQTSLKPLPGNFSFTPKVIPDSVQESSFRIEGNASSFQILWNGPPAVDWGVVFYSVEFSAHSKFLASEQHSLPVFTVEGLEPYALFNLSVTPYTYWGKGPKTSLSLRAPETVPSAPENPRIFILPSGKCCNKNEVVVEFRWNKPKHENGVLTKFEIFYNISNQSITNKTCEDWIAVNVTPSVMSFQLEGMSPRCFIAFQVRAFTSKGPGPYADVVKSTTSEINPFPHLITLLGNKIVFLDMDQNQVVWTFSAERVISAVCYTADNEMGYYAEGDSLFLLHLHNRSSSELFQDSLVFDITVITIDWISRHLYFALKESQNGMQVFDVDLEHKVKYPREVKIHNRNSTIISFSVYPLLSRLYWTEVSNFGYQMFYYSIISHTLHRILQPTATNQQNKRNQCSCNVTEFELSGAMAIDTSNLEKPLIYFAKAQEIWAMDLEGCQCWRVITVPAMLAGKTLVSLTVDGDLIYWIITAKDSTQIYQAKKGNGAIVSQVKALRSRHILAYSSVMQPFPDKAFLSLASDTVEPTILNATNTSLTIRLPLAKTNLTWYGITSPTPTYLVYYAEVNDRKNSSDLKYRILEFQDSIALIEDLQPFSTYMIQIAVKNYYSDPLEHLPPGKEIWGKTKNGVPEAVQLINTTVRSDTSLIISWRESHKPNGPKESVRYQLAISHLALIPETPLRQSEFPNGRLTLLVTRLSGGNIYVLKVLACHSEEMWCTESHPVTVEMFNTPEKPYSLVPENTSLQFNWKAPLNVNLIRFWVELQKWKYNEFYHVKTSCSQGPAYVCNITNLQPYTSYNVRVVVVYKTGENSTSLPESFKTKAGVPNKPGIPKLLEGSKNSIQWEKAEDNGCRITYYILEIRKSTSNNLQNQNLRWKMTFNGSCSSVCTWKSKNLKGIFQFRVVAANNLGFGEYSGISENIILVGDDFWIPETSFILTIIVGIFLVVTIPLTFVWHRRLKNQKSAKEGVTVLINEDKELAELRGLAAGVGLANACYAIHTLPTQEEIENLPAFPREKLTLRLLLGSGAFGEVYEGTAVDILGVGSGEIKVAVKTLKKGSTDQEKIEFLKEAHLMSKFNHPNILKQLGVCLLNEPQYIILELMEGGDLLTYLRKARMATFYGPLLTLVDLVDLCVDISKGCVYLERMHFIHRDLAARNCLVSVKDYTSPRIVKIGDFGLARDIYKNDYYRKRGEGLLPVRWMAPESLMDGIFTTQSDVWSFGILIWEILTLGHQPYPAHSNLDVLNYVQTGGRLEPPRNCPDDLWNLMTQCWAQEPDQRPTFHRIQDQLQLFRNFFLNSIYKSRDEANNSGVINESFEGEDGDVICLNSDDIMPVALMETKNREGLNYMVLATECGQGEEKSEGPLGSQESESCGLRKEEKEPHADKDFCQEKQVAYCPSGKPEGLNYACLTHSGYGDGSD
How it was run: as §1

[2] = male, SD, rat, plasma, IV, 3 mg/kg
[3] = male, SD, rat, plasma, PO, 10 mg/kg

SMILES | Apparent clearance Cl ([1]; IV, 3 mg/kg) [mL/min/kg] | Vd [1, 2] [L/kg] | AUC(0-t) [1, 2] [µM·h] | half-life [1, 2] [min] | AUC(0-t) [1, 3] [µM·h] | bioavailability [1, 3] [%] | Cmax [1, 3] [nM] | IC50 (TrkC) [nM] | IC50 (TrkA-G595R) [nM] | IC50 (TrkA) [nM] | IC50 (TrkA-G667C) [nM] | IC50 (Ros1) [nM] | Tmax ([1]; male, SD, rat, plasma, PO, 10 mg/kg, read-out: Time to peak Tmax) [min]
O=C1NC2(CC2)COc2ncc(F)cc2C2COCCN2c2ccn3ncc1c3n2 (single isomer, unassigned) [WX001B] | 19.7 | 1.9 | 6.24 | 72 | 8.07 | 39 | 1800 | 0.2 | 3.5 | 2.4 | 2.3 | 1 | –
O=C(Nc1cnn2ccc(N3CCC[C@@H]3c3cc(F)ccc3F)nc12)N1CC[C@H](O)C1 [LOXO-101, larotrectinib, reference compound] | 45.6 | 1.7 | 1.7 | 36 | 1.93 | 23 | 944 | – | – | – | – | – | 48

Source: patent publication US20210403485A1, “PYRAZOLOPYRIMIDINE DERIVATIVE AS SELECTIVE TRK INHIBITOR” (SHANDONG LUYE PHARMACEUTICAL CO., LTD., priority 2018, published 2021)
